Series [1] has as its system vancomycin-resistant Enterococcus faecalis (ATCC51575). Put plainly: microbe, parasite or virus in culture. As to conditions: ATCC51575; vancomycin-resistant Enterococcus faecalis; read-out: Antibacterial activity, VREFs (vancomycin-resistant EFs), MIC class. The class given is cell-based.
In series [2] the test system is Streptococcus pneumoniae (Chester, ATCC49619). Put plainly: Broth microdilution MIC assay, Streptococcus pneumoniae. It counts as cell-based. As to conditions: for Antibacterial activity Streptococcus pneumoniae: MIC class score, MIC100, broth microdilution; for MIC: Streptococcus pneumoniae, ATCC49619, read-out: Antibacterial activity, SP (Streptococcus pneumoniae), MIC class. In general terms: In broth dilution the organism is exposed to a series of concentrations in liquid medium.

In series [3] the test system is daptomycin-resistant Staphylococcus aureus (from MRSA COL). Put plainly: Broth microdilution MIC assay, daptomycin-resistant MRSA. It counts as cell-based. As to conditions: 24 h, read-out: Antibacterial activity, MRSA strains with additional resistance, D (daptomycin), MIC class.
In series [4] the test system is Staphylococcus epidermidis (PCI 1200, ATCC12228). Put plainly: Broth microdilution MIC assay, Staphylococcus epidermidis. As to conditions: read-out: Antibacterial activity, SE (Staphylococcus epidermidis), MIC class. It counts as cell-based.
In series [5] the test system is Staphylococcus aureus MRSA (COL). Nature of the series: Broth microdilution MIC assay, Staphylococcus aureus MRSA (COL). It counts as cell-based. As to conditions: for MIC: Staphylococcus aureus, MRSA, read-out: Antibacterial activity, MRSA (Staphylococcus aureus MRSA), MIC class; for Antibacterial activity Staphylococcus aureus (MRSA): MIC class score, MIC100, broth microdilution, COL strain.

The subject of series [6] is Mycobacterium smegmatis (mc(2)155). Put plainly: Broth microdilution MIC assay, Mycobacterium smegmatis.
The test system of series [7] is vancomycin-resistant Enterococcus faecium (ATCC51559). Nature of the series: microbe, parasite or virus in culture. It counts as cell-based.
In series [8] the test system is Enterococcus faecalis (ATCC29212). Nature of the series: Broth microdilution MIC assay, Enterococcus faecalis. The class given is cell-based. As to conditions: read-out: Antibacterial activity, EFs (Enterococcus faecalis), MIC class.
In series [9] the test system is Enterococcus faecium (AGR15, ATCCBAA-2127). Nature of the series: Broth microdilution MIC assay, Enterococcus faecium. The class given is cell-based. As to conditions: ATCCBAA2127, read-out: Antibacterial activity, EFm (Enterococcus faecium), MIC class.
For series [10], the system named is Staphylococcus aureus MSSA (Newman). Nature of the series: Broth microdilution MIC assay, Staphylococcus aureus MSSA (Newman). It counts as cell-based. As to conditions: for Antibacterial activity Staphylococcus aureus (MSSA): MIC class score, MIC100, broth microdilution, Newman strain; for MIC: Staphylococcus aureus, read-out: Antibacterial activity, MSSA (Staphylococcus aureus MSSA), MIC class.

Setting [11] is: ATCC51559, vancomycin-resistant Enterococcus faecium, read-out: Antibacterial activity, VREFm (vancomycin-resistant EFm), MIC class.

Values after ≈ are worked out from the molar mass of the structure shown. Like-named read-outs stand apart in the source and are kept apart here.

In the case of `Cc1[nH]c(-c2ccc(-c3cccc(Cl)c3Cl)o2)nc1-c1ccccc1` [compound 2], the MIC is 20 to 50 µg/mL (≈ 54.2 to 135 µM) in series [1] and 3 to 10 µg/mL (≈ 8.12 to 27.1 µM) in series [3]. Further, in series [2], the “Antibacterial activity Streptococcus pneumoniae” value is 3 (MIC100 of 2-5 μg/ml).
With `Cc1[nH]c(-c2ccc(-c3ccccc3Cl)o2)nc1-c1ccccc1` [compound 3], the MIC in series [4] was 11 to 20 µg/mL (≈ 32.9 to 59.7 µM); in [5] it was 11 to 20 µg/mL (≈ 32.9 to 59.7 µM); in series [2], < 1 µg/mL.
For the molecule `Cc1nc(-c2ccc(-c3cccc(Cl)c3)o2)[nH]c1-c1ccccc1` [compound 4], the MIC in series [5] was 11 to 20 µg/mL (≈ 32.9 to 59.7 µM); in series [2] it was < 1 µg/mL.
Consider `Cc1[nH]c(-c2ccc(-c3ccccc3F)s2)nc1-c1ccccc1` [compound 15], for which the “Antibacterial activity, MS (Mycobacterium smegmatis), MIC class” value in series [6] is given as 2 (MIC100 of 11-20 μg/ml).
Regarding `Cc1nc(-c2ccc(-c3ccc(Cl)cc3Cl)o2)[nH]c1-c1ccc(F)cc1` [compound 16], the MIC in series [7] (setting [11]) was in the range of 20 to 50 µg/mL (≈ 51.6 to 129 µM); in [1] it was 20 to 50 µg/mL (≈ 51.6 to 129 µM); in [2] it was 2 to 5 µg/mL (≈ 5.16 to 12.9 µM); in series [8], 20 to 50 µg/mL (≈ 51.6 to 129 µM).
As to `Cc1[nH]c(-c2ccc(-c3ccccc3C(F)(F)F)o2)nc1-c1ccccc1` [compound 17], in series [2], the “Antibacterial activity Streptococcus pneumoniae” value was 3 (MIC100 of 2-5 μg/ml) and the MIC is 2 to 5 µg/mL (≈ 5.43 to 13.6 µM). In addition, in series [9], the MIC fell in the range of 20 to 50 µg/mL (≈ 54.3 to 136 µM).
On to `Cc1nc(-c2ccc(-c3ccccc3C(F)(F)F)o2)[nH]c1-c1cccc(Cl)c1` [compound 22], for which, in series [2], the “Antibacterial activity Streptococcus pneumoniae” value is reported as 3 (MIC100 of 2-5 μg/ml) and the MIC is 2 to 5 µg/mL (≈ 4.97 to 12.4 µM). In addition, in series [10], the “Antibacterial activity Staphylococcus aureus (MSSA)” value is on record as 2 (MIC100 of 11-20 μg/ml) and the MIC lay in the range of 11 to 20 µg/mL (≈ 27.3 to 49.7 µM).
In the case of `Cc1[nH]c(-c2ccc(-c3ccccc3OC(F)(F)F)o2)nc1-c1ccc(F)cc1` [compound 23, 4-(4-Fluoro-phenyl)-5-methyl-2-[5-(2-trifluoromethoxy-phenyl)-furan-2-yl]-1H-imidazole], the MIC in [7] (setting [11]), in [1], in series [9] and in series [8] was 20 to 50 µg/mL (≈ 49.7 to 124 µM) throughout.
For `Cc1nc(-c2ccc(-c3ccccc3OC(F)(F)F)o2)[nH]c1-c1ccc(Br)cc1` [compound 29], the “Antibacterial activity Staphylococcus aureus (MRSA)” value in series [5] is given as 2 (MIC100 of 11-20 μg/ml). In addition, in series [2], the “Antibacterial activity Streptococcus pneumoniae” value was 3 (MIC100 of 2-5 μg/ml) and the MIC lay in the range of 2 to 5 µg/mL (≈ 4.32 to 10.8 µM).
In the case of `Cc1[nH]c(-c2ccn(-c3ccccc3C(F)(F)F)c2)nc1-c1ccccc1` [compound 33], the MIC in [4] was 11 to 20 µg/mL (≈ 29.9 to 54.4 µM); in [2], 6 to 10 µg/mL (≈ 16.3 to 27.2 µM).
With `Cc1[nH]c(-c2cc(C)n(-c3cccc(C(F)(F)F)c3)c2C)nc1-c1ccccc1` [compound 36], in series [5], the “Antibacterial activity Staphylococcus aureus (MRSA)” value is 2 (MIC100 of 11-20 μg/ml). The MIC in [2] was in the range of 2 to 5 µg/mL (≈ 5.06 to 12.6 µM).
`Cc1nc(-c2ccc(-c3cccc(OC(F)(F)F)c3)o2)[nH]c1-c1ccc(F)cc1` [compound 37]: the MIC in [7] (setting [11]) was 20 to 50 µg/mL (≈ 49.7 to 124 µM); in series [1], 20 to 50 µg/mL (≈ 49.7 to 124 µM); in [2], < 1 µg/mL; in series [8], 20 to 50 µg/mL (≈ 49.7 to 124 µM). Besides, the “Antibacterial activity, MS (Mycobacterium smegmatis), MIC class” value in series [6] is given as 2 (MIC100 of 11-20 μg/ml).
As for `Cc1[nH]c(-c2ccc(-c3cccc(C(F)(F)F)c3)o2)nc1-c1ccc(F)cc1` [compound 38], the MIC in [7] (Enterococcus faecium, ATCC51559, read-out: Antibacterial activity, VREFm (vancomycin-resistant EFm), MIC class) was 20 to 50 µg/mL (≈ 51.8 to 129 µM); in series [2] it was 2 to 5 µg/mL (≈ 5.18 to 12.9 µM); in series [8] it was 20 to 50 µg/mL (≈ 51.8 to 129 µM). The “Antibacterial activity Streptococcus pneumoniae” value in [2] was 3 (MIC100 of 2-5 μg/ml).
`Cc1[nH]c(-c2ccc(-c3ccc(Cl)c(C(F)(F)F)c3)o2)nc1-c1ccccc1` [compound 39]: the MIC is 20 to 50 µg/mL (≈ 49.7 to 124 µM) in series [7] (setting [11]), 20 to 50 µg/mL (≈ 49.7 to 124 µM) in [1], < 1 µg/mL in series [2] and 20 to 50 µg/mL (≈ 49.7 to 124 µM) in series [8].
Consider `Cc1nc(-c2ccc(-c3ccc(Cl)c(OC(F)(F)F)c3)o2)[nH]c1-c1ccccc1` [compound 41], for which the MIC was in the range of 20 to 50 µg/mL (≈ 47.8 to 119 µM) in [7] (setting [11]), 11 to 20 µg/mL (≈ 26.3 to 47.8 µM) in series [4], 20 to 50 µg/mL (≈ 47.8 to 119 µM) in [1] and 20 to 50 µg/mL (≈ 47.8 to 119 µM) in series [8].
Consider `Cc1[nH]c(-c2ccc(-c3ccc(Cl)c(C(F)(F)F)c3)o2)nc1-c1ccc(F)cc1` [compound 42], for which the MIC in series [7] (setting [11]) was in the range of 20 to 50 µg/mL (≈ 47.5 to 119 µM); in series [1] it was 11 to 20 µg/mL (≈ 26.1 to 47.5 µM); in series [9] it was 20 to 50 µg/mL (≈ 47.5 to 119 µM); in [8] it was 11 to 20 µg/mL (≈ 26.1 to 47.5 µM).
Take `Cc1nc(-c2ccc(-c3ccc(Cl)c(OC(F)(F)F)c3)o2)[nH]c1-c1ccc(F)cc1` [compound 43]: in series [5], the “Antibacterial activity Staphylococcus aureus (MRSA)” value is reported as 2 (MIC100 of 11-20 μg/ml). Besides, the MIC in series [8] is 20 to 50 µg/mL (≈ 45.8 to 114 µM).
In the case of `Cc1[nH]c(-c2ccc(-c3ccc(C(F)(F)F)cc3)s2)nc1-c1ccccc1` [compound 46], the “Antibacterial activity Streptococcus pneumoniae” value in series [2] was 3 (MIC100 of 2-5 μg/ml). In series [10], the “Antibacterial activity Staphylococcus aureus (MSSA)” value is 2 (MIC100 of 11-20 μg/ml) and the MIC fell in the range of 11 to 20 µg/mL (≈ 28.6 to 52 µM).
